Data: paper PMC5326599 (Antiviral research, 2017)
Values joined by “and” are separate entries in the source; they are usually repeats but may differ in a detail not shown here. Equal values may be shown once. Read-outs that look alike come from different tables or passages of the source. Marks after values point to notes of the source that are not given here.

Key:
[1] = test system: A/Udorn/72 (H3N2) virus (M2-WT); experiment: microbe, parasite or virus in culture; format: cell-based, influenza A virus
[2] = test system: A/Solomon Islands/3/2006 (H1N1) virus; experiment: microbe, parasite or virus in culture; format: cell-based; conditions: read-out: EC50, A/Solomon Islands/3/2006 (H1N1)
[3] = test system: A/WSN/33 (M2-N31S) (H1N1) virus; format: cell-based, influenza A virus; conditions: read-out: EC50, A/WSN/33 (M2-N31S) (H1N1)
[4] = test system: influenza A/WSN/33 (M2-N31S + V27A) (H1N1) virus; design: species or system BALB/c mice; conditions: mouse, in vivo
[5] = biological target: A/Udorn/72 (M2-V27A) proton channel (Influenza A virus, UniProt P0DOF5, V27A); format: biochemical
M2-S31N channel = M2-S31N channel (Influenza A virus, UniProt P0DOF5, S31N); format: biochemical
[6] = test system: A/WSN/33 (M2-N31S + V27A) (H1N1) virus; format: cell-based, influenza A virus

SMILES	EC50 ([1]; Influenza A virus, H3N2, read-out: antiviral EC50 at passage 1) [nM]	EC50 ([2]; Influenza A virus, H1N1, MDCK) [nM]	EC50 [3] [nM]	MDD ± SD (mean day of death) [4]	Mean Lung Parameters ± SD (Day 6): Virus Titer [4]	Mean Lung Parameters ± SD (Day 6): Weight [4]	Survivors/Total [4]	protection / effectiveness (in words) [4]	EC50 ([1]; read-out: antiviral EC50 at passage 1) [nM]	EC50 ([1]; read-out: antiviral EC50 at passage 2) [nM]	channel conductance current at the second activation event, % of the maximum current [5] [%]	channel inhibition at 100 μM, M2-S31N (M2-S31N channel) [%]	EC50 [2] [nM]	EC50 ([6]; read-out: Antiviral Efficacy EC50, A/WSN/33 (M2-N31S + V27A) (H1N1) M2-V27A) [nM]	Mean Lung Parameters ± SD (Day 6): Hemorrhage Score [4]	protection from death [4] [%]	inhibition of plaque formation [6]
NC12CC3CC(CC(C3)C1)C2 [Amantadine (1), amantadine]	[…]	[…]	[…]	[…]	[…]	[…]	[…]	minimum effectiveness	–	–	–	–	–	–	–	–	–
NC1CCC2(CC1)C1CC3CC(C1)CC2C3 (centres unmarked) [Compound 3, spiroadamantane amine]	–	–	[…]	[…]	[…]	[…]	[…]	highly protective	[…]	[…]	[…]	[…]	[…]	[…]	–	–	–
CCOC(=O)C1=C[C@@H](OC(CC)CC)[C@H](NC(C)=O)[C@@H](N)C1 [Oseltamivir (4), Oseltamivir]	–	–	–	–	2.5 ± 0.2 Log10 CCID50/g	178 ± 28 mg	10/10^***	–	–	–	–	–	–	–	0.0 ± 0.0	100	–
CCC(CC)O[C@@H]1C=C(C(=O)O)C[C@H](N)[C@H]1NC(C)=O [Oseltamivir carboxylate (4), Oseltamivir carboxylate, reference compound]	–	–	–	–	–	–	–	–	–	–	–	–	–	–	–	–	complete inhibition
